One assay addresses GST tagged truncated human mutant G2019S LRRK2 (Homo sapiens (Human), UniProt Q5S007, G2019S). In words: LRRK2 Km ATP LanthaScreen Assay. The class given is biochemical. The following applies: G2019S LRRK2, 134 μM ATP (Km ATP), mean values. In a few lines: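 Enzyme (GST-tagged, truncated) was preincubated with compound for 15 min at RT in 50 mM Tris pH 8.5, 10 mM MgCl2, 0.01% Brij-35, 1 mM EGTA, 2 mM DTT and 0.05 mM orthovanadate. Fluorescein-LRRKtide and 134 μM ATP (Km) were then added for 90 min. EDTA and Tb-anti-pERM antibody stopped the reaction; the TR-FRET 520/495 ratio gave 4-parameter IC50s, reported as mean pIC50.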
Sequence of GST tagged truncated human mutant G2019S LRRK2 (Q5S007 970-2527 G2019S): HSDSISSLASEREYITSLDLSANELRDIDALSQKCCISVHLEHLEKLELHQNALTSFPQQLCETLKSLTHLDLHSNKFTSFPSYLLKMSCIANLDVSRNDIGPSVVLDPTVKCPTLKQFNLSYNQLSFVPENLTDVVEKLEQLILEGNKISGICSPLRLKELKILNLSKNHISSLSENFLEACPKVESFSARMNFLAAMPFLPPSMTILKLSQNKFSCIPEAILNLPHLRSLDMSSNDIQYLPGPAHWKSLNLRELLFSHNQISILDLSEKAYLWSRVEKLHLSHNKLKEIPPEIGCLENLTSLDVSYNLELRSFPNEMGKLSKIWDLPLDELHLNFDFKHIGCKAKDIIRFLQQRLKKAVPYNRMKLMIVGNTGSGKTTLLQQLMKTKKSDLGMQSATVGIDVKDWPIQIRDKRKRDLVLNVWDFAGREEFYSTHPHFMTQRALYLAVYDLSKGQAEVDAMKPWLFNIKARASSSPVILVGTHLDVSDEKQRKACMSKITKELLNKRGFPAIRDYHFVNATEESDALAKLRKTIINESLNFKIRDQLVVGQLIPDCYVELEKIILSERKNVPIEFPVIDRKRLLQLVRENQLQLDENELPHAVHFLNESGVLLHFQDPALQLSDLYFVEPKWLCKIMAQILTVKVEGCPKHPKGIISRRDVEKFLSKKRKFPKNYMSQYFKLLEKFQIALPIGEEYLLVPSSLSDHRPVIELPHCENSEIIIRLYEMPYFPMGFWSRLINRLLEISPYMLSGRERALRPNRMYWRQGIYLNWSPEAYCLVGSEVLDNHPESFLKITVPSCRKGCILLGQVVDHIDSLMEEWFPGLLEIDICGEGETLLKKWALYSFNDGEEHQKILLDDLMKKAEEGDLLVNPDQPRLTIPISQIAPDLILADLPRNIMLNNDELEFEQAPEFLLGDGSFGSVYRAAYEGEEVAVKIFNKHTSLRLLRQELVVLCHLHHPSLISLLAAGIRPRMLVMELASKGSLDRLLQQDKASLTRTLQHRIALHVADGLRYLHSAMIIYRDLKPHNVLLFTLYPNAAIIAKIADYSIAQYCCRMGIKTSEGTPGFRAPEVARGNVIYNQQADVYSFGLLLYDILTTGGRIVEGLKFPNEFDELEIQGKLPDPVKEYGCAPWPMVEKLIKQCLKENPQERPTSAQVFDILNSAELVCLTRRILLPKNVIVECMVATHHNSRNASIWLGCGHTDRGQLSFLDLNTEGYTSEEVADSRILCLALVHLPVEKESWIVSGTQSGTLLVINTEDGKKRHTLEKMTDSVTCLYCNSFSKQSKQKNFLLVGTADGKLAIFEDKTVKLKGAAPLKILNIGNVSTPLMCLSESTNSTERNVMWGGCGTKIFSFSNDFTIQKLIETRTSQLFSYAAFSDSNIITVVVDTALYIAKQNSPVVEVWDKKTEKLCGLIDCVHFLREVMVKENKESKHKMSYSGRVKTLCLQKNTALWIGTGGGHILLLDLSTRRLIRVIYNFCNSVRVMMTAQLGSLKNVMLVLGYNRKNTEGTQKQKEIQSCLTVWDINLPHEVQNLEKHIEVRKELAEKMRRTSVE
As for `Cn1nc(C(F)(F)F)cc1Nc1ncc2cc(Cl)c(C3CCN([C@@H]4COC[C@@H]4O)CC3)cc2n1` (single isomer, unassigned) [Ex-1.24, (3S,4S) or (3R,4R) 4-[4-(6-chloro-2-{[1-methyl-3-(trifluoromethyl)-1H-pyrazol-5-yl]amino}quinazolin-7-yl)piperidin-1-yl]oxolan-3-ol], the “LRRK2 pIC50” value was 8.58.
In the case of `FC(F)n1ncc(Nc2ncc3cc(Cl)c(C4CCN(C5COC5)CC4)cc3n2)c1Cl` [Ex-8.2, 6-chloro-N-[5-chloro-1-(difluoromethyl)-1H-pyrazol-4-yl]-7-[1-(oxetan-3-yl)piperidin-4-yl]quinazolin-2-amine], the “LRRK2 pIC50” value turned out to be 8.83.
Still for that read-out and setting: as for `Cc1c(Nc2ncc3cc(Cl)c(C4CCN([C@H]5COC[C@H]5O)CC4)cc3n2)cnn1C` (single isomer, unassigned) [Ex-2.67, (3S,4S) or (3R,4R) 4-(4-{6-chloro-2-[(1,5-dimethyl-1H-pyrazol-4-yl)amino]quinazolin-7-yl}piperidin-1-yl)oxolan-3-ol], the figure is over 9.20; as for `Cc1cc(Nc2ncc3cc(Cl)c(C4CCN([C@H]5COC[C@H]5O)CC4)cc3n2)sn1` (single isomer, unassigned) [Ex-2.55, (3S,4S) or (3R,4R)4-(4-{6-chloro-2-[(3-methyl-l,2-thiazol-5-yl)amino]quinazolin-7-yl}piperidin-1-yl)oxolan-3-ol], over 9.20.
On the same count and under the same terms, as for `Cc1nsc(Nc2ncc3cc(Cl)c(C4CCN(C5COC5)CC4)cc3n2)c1Cl` [Ex-8.5, 6-chloro-N-(4-chloro-3-methyl-1,2-thiazol-5-yl)-7-[1-(oxetan-3-yl)piperidin-4-yl]quinazolin-2-amine], the figure is over 9.20; as for `Cn1nc(C(C)(C)C)cc1Nc1ncc2cc(Cl)c([C@@H]3CCN([C@]4(C)COC[C@@H]4O)C[C@H]3F)cc2n1` (single isomer, unassigned) [Ex-4.245, (3S,4S)(3S,4S) or (3S,4S)(3R,4R) or (3R,4R)(3S,4S) or (3R,4R)(3R,4R) 4-(4-{2-[(3-tert-butyl-1-methyl-1H-pyrazol-5-yl)amino]-6-chloroquinazolin-7-yl}-3-fluoropiperidin-1-yl)-4-methyloxolan-3-ol], over 9.20.
Still for that read-out and setting: as for `Cc1c(Nc2ncc3cc(Cl)c(C4CCN(C[C@H](O)c5cccc(F)c5F)CC4)cc3n2)cnn1C1CC1` [Ex-4.206, (1R)-2-(4-{6-chloro-2-[(1-cyclopropyl-5-methyl-1H-pyrazol-4-yl)amino]quinazolin-7-yl}piperidin-1-yl)-1-(2,3-difluorophenyl)ethan-1-ol], the figure is 7.90; as for `CN1CCC(c2cc3nc(Nc4cnn(C5(C)CC5)c4Cl)ncc3cc2Cl)CC1` [Ex-8.14, 6-chloro-N-[5-chloro-1-(1-methylcyclopropyl)-1H-pyrazol-4-yl]-7-(1-methylpiperidin-4-yl)quinazolin-2-amine], over 9.20; as for `[2H]C([2H])([2H])n1ncc(Nc2ncc3cc(Cl)c(C4CCN([C@]5(C)COC[C@@H]5O)CC4)cc3n2)c1C` (single isomer, unassigned) [Ex-1.26, (3S,4S) or (3R,4R)-4-(4-(6-chloro-2-((5-methyl-1-(methyl-d3)-1H-pyrazol-4-yl)amino)quinazolin-7-yl)piperidin-1-yl)-4-methyltetrahydrofuran-3-ol], over 9.20.
In the case of `C[C@@]1(N2CCC(c3cc4nc(Nc5ccnn5C5CC5(F)F)ncc4cc3Cl)CC2)COC[C@@H]1O` (single isomer, unassigned) [Ex-2.84, (S)(3S,4S) or (S)(3R,4R) or (R)(3S,4S) or (R)(3R,4R) 4-[4-(6-chloro-2-{[1-(2,2-difluorocyclopropyl)-1H-pyrazol-5-yl]amino}quinazolin-7-yl)piperidin-1-yl]-4-methyloxolan-3-ol], the “LRRK2 pIC50” value is recorded as 8.80.
On the same count and under the same terms, in the case of `CO[C@H]1COC[C@H]1N1CC[C@@H](c2cc3nc(Nc4cnn(C5CC5)c4Cl)ncc3cc2C)[C@H](F)C1` (single isomer, unassigned) [Ex-4.248, (3S,4S)(3S,4S) or (3S,4S)(3R,4R) or (3R,4R)(3S,4S) or (3R,4R)(3R,4R)N-(5-chloro-1-cyclopropyl-1H-pyrazol-4-yl)-7-[3-fluoro-1-(4-methoxyoxolan-3-yl)piperidin-4-yl]-6-methylquinazolin-2-amine] it was over 9.20.
On the same count and under the same terms, in the case of `Cc1c(Nc2ncc3cc(Cl)c(C4CCN(C(=O)[C@H](C)O)C4)cc3n2)cnn1C1CC1` (single isomer, unassigned) [Ex-4.190, (2S)(3S) or (2S)(3R) 1-(3-{6-chloro-2-[(1-cyclopropyl-5-methyl-1H-pyrazol-4-yl)amino]quinazolin-7-yl}pyrrolidin-1-yl)-2-hydroxypropan-1-one] it was 8.73; in that of `Cc1cc2cnc(Nc3cnn(CC(C)(C)O)c3C)nc2cc1[C@@H]1CCN(C2COC2)C[C@H]1F` (single isomer, unassigned) [Ex-5.5, (3S,4S) or (3R,4R) 1-[4-({7-[3-fluoro-1-(oxetan-3-yl)piperidin-4-yl]-6-methylquinazolin-2-yl}amino)-5-methyl-1H-pyrazol-1-yl]-2-methylpropan-2-ol], 8.37; in that of `Cc1cc2cnc(Nc3cc(C(C)(C)C)nn3C)nc2cc1C1CCN([C@]2(C)COC[C@@H]2O)CC1` (single isomer, unassigned) [Ex-5.14, (3S,4S) or (3R,4R) 4-(4-{2-[(3-tert-butyl-1-methyl-1H-pyrazol-5-yl)amino]-6-methylquinazolin-7-yl}piperidin-1-yl)-4-methyloxolan-3-ol], 9.02.

Still in this assay, the particulars now being: G2019S LRRK2, 134 μM ATP (Km ATP), mean values; read-out: LRRK2 pIC50 (converted).
On to `O=S1(=O)CCC(N2CCC(c3cc4nc(Nc5cnn(CC(F)F)c5Cl)ncc4cc3Cl)CC2)C1` (racemic) [Ex-4.6, (S) and (R) 3-(4-(6-chloro-2-((5-chloro-1-(2,2-difluoroethyl)-1H-pyrazol-4-yl)amino)quinazolin-7-yl)piperidin-1-yl)tetrahydrothiophene 1,1-dioxide], for which the IC50 is under 0.631 nM.
The same measure, in the same setting: as for `Cc1c(Nc2ncc3cc(Cl)c(C4CCN(C5COC5)CC4)cc3n2)cnn1C1CCOC1` (single isomer, unassigned) [Ex-2.24, (S) or (R) 6-chloro-N-[5-methyl-1-(oxolan-3-yl)-1H-pyrazol-4-yl]-7-[1-(oxetan-3-yl)piperidin-4-yl]quinazolin-2-amine], the figure is 0.741 nM; as for `Cc1c(Nc2ncc3cc(Cl)c(C4CCN(CC(O)CN5CCOCC5)CC4)cc3n2)cnn1C1CC1` (single isomer, unassigned) [Ex-4.228, (S) or (R) 1-(4-{6-chloro-2-[(1-cyclopropyl-5-methyl-1H-pyrazol-4-yl)amino]quinazolin-7-yl}piperidin-1-yl)-3-(morpholin-4-yl)propan-2-ol], 1.55 nM.
The same measure, in the same setting: as for `CC(n1ncc(Nc2ncc3cc(Cl)c(C4CCN(C5COC5)CC4)cc3n2)c1Cl)C(F)(F)F` (single isomer, unassigned) [Ex-8.3, (S) or (R) 6-chloro-N-[5-chloro-1-(1,1,1-trifluoropropan-2-yl)-1H-pyrazol-4-yl]-7-[1-(oxetan-3-yl)piperidin-4-yl]quinazolin-2-amine], the figure is under 0.631 nM.
Still for that read-out and setting: as for `Cc1nsc(Nc2ncc3cc(Cl)c([C@@H]4CCN(C5COC5)C[C@H]4F)cc3n2)c1Cl` (single isomer, unassigned) [Ex-4.88, (3S,4S) or (3R,4R) 6-chloro-N-(4-chloro-3-methyl-1,2-thiazol-5-yl)-7-[3-fluoro-1-(oxetan-3-yl)piperidin-4-yl]quinazolin-2-amine], the figure is 3.8 nM.

The values are drawn from patent US12540131B2 (Merck Sharp & Dohme LLC, priority 2019, dated 2026).
